Legend:
[1] = system: NF-κB pathway; assay: TNF-α assay in IFN-γ-differentiated, LPS-stimulated THP-1 cells (ELISA); type: cell-based; conditions: Homo sapiens, 50 ng/mL LPS, 3 hours
Description: Monocytic THP-1 cells (ATCC: TIB-202) are maintained in accordance with the provider's instructions in RPMI media (Life Technologies, Cat #A10491-01); RPMI is supplemented with 10% heat inactivated fetal bovine serum (Hyclone Cat #SH30396.03). The cells are differentiated into macrophages by the addition of 25 ng/mL IFN-γ for 24 hours at 37° C./5% CO2. Media is exchanged with fresh media with no FBS. The cells are plated at 40,000 cells per well in 384-well flat-bottom cell culture plates (Costar 3764) containing compounds (added in 1:1000) in a 1:3.16 serial dilution series in DMSO and are incubated for 30 minutes at 37° C./5% CO2. The NF-κB pathway is activated with the addition of 50 ng/mL LPS and the cells are incubated for 3 hours at 37° C./5% CO2. At the end of the incubation period, supernatant (40 μL) is removed, and […] are monitored using an ELISA (Human TNF-α ELISA, R&D systems, Cat #DY210) according to the manufacturer's instructions.
The IC50 values are calculated from a plot of percentage of inhibition versus the inhibitor concentration by a logistics curve fit according to: Y=[Bottom+(Top−Bottom)]/(1+10^[(Log IC50−X)·Hill Slope], where Y is the % inhibition at the inhibitor concentration, X, “Bottom” is the lowest inhibition value, i.e. 0%, “Top” is the maximum inhibition value, i.e. 100%, and the “Hill Slope” describes the slope of the sigmoidal curve between the “Bottom” and “Top” values. The curve fitting was conducted with internally developed software.

[2] = molecular target: NLRP3 inflammasome (Homo sapiens, UniProt Q96P20); assay: IL-1β assay in IFN-γ-differentiated, LPS-primed, ATP-activated THP-1 cells (ELISA); type: cell-based; conditions: 50 ng/mL LPS priming, 2.5 mM ATP activation, 2 hours
Sequence of NLRP3 inflammasome (Q96P20 whole entry): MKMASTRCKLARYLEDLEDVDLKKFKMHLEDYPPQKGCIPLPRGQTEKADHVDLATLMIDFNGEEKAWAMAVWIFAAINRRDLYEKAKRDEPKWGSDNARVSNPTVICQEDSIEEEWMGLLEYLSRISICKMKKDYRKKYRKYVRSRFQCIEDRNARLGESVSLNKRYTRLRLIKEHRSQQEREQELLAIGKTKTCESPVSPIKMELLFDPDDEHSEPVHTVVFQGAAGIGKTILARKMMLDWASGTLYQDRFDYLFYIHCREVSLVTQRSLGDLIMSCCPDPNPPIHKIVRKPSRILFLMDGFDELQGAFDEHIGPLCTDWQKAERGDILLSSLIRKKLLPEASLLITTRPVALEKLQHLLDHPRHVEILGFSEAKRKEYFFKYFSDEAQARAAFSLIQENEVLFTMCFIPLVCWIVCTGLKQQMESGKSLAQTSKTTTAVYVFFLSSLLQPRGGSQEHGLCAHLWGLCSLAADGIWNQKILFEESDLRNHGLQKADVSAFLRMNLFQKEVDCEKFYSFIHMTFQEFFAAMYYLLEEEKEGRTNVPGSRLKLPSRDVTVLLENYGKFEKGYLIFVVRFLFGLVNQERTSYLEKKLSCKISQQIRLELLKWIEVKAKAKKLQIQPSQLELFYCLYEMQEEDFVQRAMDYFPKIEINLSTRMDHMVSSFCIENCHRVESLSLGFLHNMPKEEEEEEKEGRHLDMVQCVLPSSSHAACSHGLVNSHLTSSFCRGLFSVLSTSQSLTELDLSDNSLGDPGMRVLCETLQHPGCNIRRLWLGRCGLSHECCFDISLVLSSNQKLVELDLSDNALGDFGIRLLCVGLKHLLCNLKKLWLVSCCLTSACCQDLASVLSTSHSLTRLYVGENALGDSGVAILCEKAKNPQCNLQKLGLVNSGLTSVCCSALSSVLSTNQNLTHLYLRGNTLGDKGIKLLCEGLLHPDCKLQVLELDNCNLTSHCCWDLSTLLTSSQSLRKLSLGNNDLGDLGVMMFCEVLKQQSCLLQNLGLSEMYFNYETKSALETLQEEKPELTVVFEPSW
Procedure, shortened: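 Supernatant IL-1β is quantified by ELISA after 2 h of 2.5 mM ATP stimulation at 37 °C, with IC50 taken from a four-parameter fit of % inhibition. Before this, THP-1 macrophages (25 ng/mL IFN-γ, 24 h) were LPS-primed (50 ng/mL, 24 h, no FBS) and exposed to serially diluted compound for 30 min.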

Row | SMILES | IC50 [1] [µM] | IC50 [2] [µM]
1 | CN1CCCC(Nc2nnc(-c3ccc(Cl)c(F)c3)c3ccccc23)C1 (stereo not shown) [Example 44, 4-(4-chloro-3-fluorophenyl)-N-(1-methylpiperidin-3-yl)phthalazin-1-amine] | > 30 | 0.097
2 | COc1ccc(-c2nnc(NC3CCCN(C)C3)c3cnccc23)cc1 (stereo not shown) [Example 72, 1-(4-methoxyphenyl)-N-(1-methylpiperidin-3-yl)pyrido[3,4-d]pyridazin-4-amine] | > 30 | 0.052
3 | COc1ccc(-c2nnc(NC3CCCN(C)C3)c3ccncc23)cc1 (stereo not shown) [Example 73, 4-(4-methoxyphenyl)-N-(1-methylpiperidin-3-yl)pyrido[3,4-d]pyridazin-1-amine] | > 30 | 0.27
4 | Oc1cc(Cl)ccc1-c1nnc(N[C@@H]2CCCN(CCF)C2)c2cnccc12 [Example 85, (R)-5-chloro-2-(4-((1-(2-fluoroethyl)piperidin-3-yl)amino)pyrido[3,4-d]pyridazin-1-yl)phenol] | > 30 | 0.002
5 | COc1ccc(-c2nnc(N[C@@H]3CCCN(CCF)C3)c3cnccc23)cc1 [Example 84, (R)—N-(1-(2-fluoroethyl)piperidin-3-yl)-1-(4-methoxyphenyl)pyrido[3,4-d]pyridazin-4-amine] | > 30 | 0.079
6 | COc1ccc(-c2nnc(N[C@@H]3C[C@@H](F)CN(C)C3)c3cnccc23)cc1 [Example 174, N-((3R,5R)-5-fluoro-1-methylpiperidin-3-yl)-1-(4-methoxyphenyl)pyrido[3,4-d]pyridazin-4-amine] | > 30 | 0.159
7 | COc1ccc(-c2nnc(Nc3cccc(O)c3)c3ccncc23)cc1 [Example 41, 3-((4-(4-methoxyphenyl)pyrido[3,4-d]pyridazin-1-yl)amino)phenol] | > 30 | 0.394
8 | CN1CCC[C@@H](Nc2nnc(-c3ccc(Cl)cc3O)c3ccncc23)C1 [Example 74, (R)-5-chloro-2-(4-((1-methylpiperidin-3-yl)amino)pyrido[3,4-d]pyridazin-1-yl)phenol] | > 30 | 0.004
9 | COc1ccc(-c2nnc(Nc3cccc(O)c3)c3cnccc23)cc1 [Example 40, 3-((1-(4-methoxyphenyl)pyrido[3,4-d]pyridazin-4-yl)amino)phenol] | > 30 | 3.02
10 | COc1ccc(-c2nnc(N[C@@H]3C[C@@H](F)CN(C)C3)c3c2CCOC3)c(C(F)(F)F)c1 [Example 216, N-((3R,5R)-5-fluoro-1-methylpiperidin-3-yl)-1-(4-methoxy-2-(trifluoromethyl)phenyl)-7,8-dihydro-5H-pyrano[3,4-d]pyridazin-4-amine] | > 30 | 0.373
11 | CN1CCC[C@@H](Nc2nnc(-c3ccccc3O)c3ccncc23)C1 [Example 28, (R)-2-(4-((1-methylpiperidin-3-yl)amino)pyrido[3,4-d]pyridazin-1-yl)phenol] | > 30 | 0.008
12 | CCN1C[C@H](F)C[C@@H](Nc2nnc(-c3ccc(OC)cc3)c3ccccc23)C1 [Example 193, N-((3R,5R)-1-ethyl-5-fluoropiperidin-3-yl)-4-(4-methoxyphenyl)phthalazin-1-amine] | > 30 | 0.022
13 | COc1ccc(-c2nnc(N[C@@H]3C[C@@H](F)CN(C(C)C)C3)c3ccccc23)cc1 [Example 196, N-((3R,5R)-5-fluoro-1-isopropylpiperidin-3-yl)-4-(4-methoxyphenyl)phthalazin-1-amine] | > 30 | 0.012
14 | Cc1cc2c(NC3CCCN(C)C3)nnc(-c3ccc(Cl)cc3)c2cn1 (stereo not shown) [Example 81, 4-(4-chlorophenyl)-7-methyl-N-(1-methylpiperidin-3-yl)pyrido[3,4-d]pyridazin-1-amine] | > 30 | 0.067
15 | COc1ccc(-c2nnc(N[C@@H]3C[C@@H](F)CN(CC4CC4)C3)c3ccccc23)cc1 [Example 194, N-((3R,5R)-1-(cyclopropylmethyl)-5-fluoropiperidin-3-yl)-4-(4-methoxyphenyl)phthalazin-1-amine] | > 30 | 0.035
16 | Cc1ccc(-c2nnc(N[C@@H]3C[C@@H](F)CN(C)C3)c3c(C)nccc23)c(O)c1 [Example 186, 2-(4-(((3R,5R)-5-fluoro-1-methylpiperidin-3-yl)amino)-5-methylpyrido[3,4-d]pyridazin-1-yl)-5-methylphenol] | > 30 | 0.005

Now from value to compound:

Row | IC50 [1] [µM] | IC50 [2] [µM] | SMILES
17 | > 10 | 0.095 | COc1cc2c(NC3CCCN(C)C3)nnc(-c3ccc(Cl)cc3)c2cn1 (stereo not shown) [Example 82, 4-(4-chlorophenyl)-7-methoxy-N-(1-methylpiperidin-3-yl)pyrido[3,4-d]pyridazin-1-amine]
18 | > 30 | 0.112 | CN1CCCC(Nc2nnc(-c3ccc(C4CC4)cc3)c3ccccc23)C1 (stereo not shown) [Example 16, 4-(4-cyclopropylphenyl)-N-(1-methylpiperidin-3-yl)phthalazin-1-amine]
19 | > 30 | 3.78 | CN1CCCC(Nc2nnc(-c3ccc(Cl)cc3)c3ccccc23)C1=O (stereo not shown) [Example 111, 3-((4-(4-chlorophenyl)phthalazin-1-yl)amino)-1-methylpiperidin-2-one]
20 | > 30 | 0.082 | COc1cc2c(-c3ccc(Cl)cc3)nnc(NC3CCCN(C)C3)c2cn1 (stereo not shown) [Example 83, 1-(4-chlorophenyl)-7-methoxy-N-(1-methylpiperidin-3-yl)pyrido[3,4-d]pyridazin-4-amine]
21 | > 30 | 0.007 | COc1ccc(-c2nnc(N[C@@H]3CCCN(C4CC4)C3)c3cnccc23)cc1 [Example 169, (R)—N-(1-cyclopropylpiperidin-3-yl)-1-(4-methoxyphenyl)pyrido[3,4-d]pyridazin-4-amine]
22 | > 30 | 0.032 | CN1C[C@H](F)C[C@@H](Nc2nnc(-c3ccc(F)cc3O)c3c2CCOC3)C1 [Example 203, 5-fluoro-2-(1-(((3R,5R)-5-fluoro-1-methylpiperidin-3-yl)amino)-7,8-dihydro-5H-pyrano[3,4-d]pyridazin-4-yl)phenol]
23 | > 30 | 0.152 | CN1C[C@H](F)C[C@@H](Nc2nnc(-c3ccc(Cl)cc3F)c3ccncc23)C1 [Example 184, 1-(4-chloro-2-fluorophenyl)-N-((3R,5R)-5-fluoro-1-methylpiperidin-3-yl)pyrido[3,4-d]pyridazin-4-amine]
24 | > 30 | 0.066 | COc1ccc(-c2nnc(N[C@@H]3CCCN(CCF)C3)c3ccccc23)cc1 [Example 58, (R)—N-(1-(2-fluoroethyl)piperidin-3-yl)-4-(4-methoxyphenyl)phthalazin-1-amine]
25 | > 30 | 0.556 | CN1C[C@H](F)C[C@@H](Nc2nnc(-c3ccc(OC(F)(F)F)cc3F)c3c2CCOC3)C1 [Example 214, N-((3R,5R)-5-fluoro-1-methylpiperidin-3-yl)-4-(2-fluoro-4-(trifluoromethoxy)phenyl)-7,8-dihydro-5H-pyrano[3,4-d]pyridazin-1-amine]
26 | 7.59 | 0.648 | F[C@H]1CNC[C@H](Nc2nnc(-c3ccc(Cl)cc3)c3ccccc23)C1 [Example 190, 4-(4-chlorophenyl)-N-((3R,5R)-5-fluoropiperidin-3-yl)phthalazin-1-amine]
27 | > 30 | 0.088 | COc1ccc(-c2nnc(N[C@@H]3CCCN(C)C3)c3cnccc23)cc1 [Example 35, (R)-1-(4-methoxyphenyl)-N-(1-methylpiperidin-3-yl)pyrido[3,4-d]pyridazin-4-amine]
28 | > 30 | 0.003 | Cc1ccc(-c2nnc(N[C@@H]3C[C@@H](F)CN(C)C3)c3cnccc23)c(O)c1 (relative stereo) [Example 173, 2-(4-((trans-5-fluoro-1-methylpiperidin-3-yl)amino)pyrido[3,4-d]pyridazin-1-yl)-5-methylphenol]
29 | > 30 | 2.26 | Clc1ccc(-c2nnc(Nc3ccccc3)c3ccccc23)cc1 [Example 153, 4-(4-chlorophenyl)-N-phenylphthalazin-1-amine]
30 | > 30 | 0.091 | Clc1ccc(-c2nnc(NC3CCCN(C4CC4)C3)c3ccncc23)cc1 (stereo not shown) [Example 89, 4-(4-chlorophenyl)-N-(1-cyclopropylpiperidin-3-yl)pyrido[3,4-d]pyridazin-1-amine]
31 | 23.4 | 0.066 | Clc1ccc(-c2nnc(NC3CCCN(Cc4ccccc4)C3)c3ccccc23)cc1 (stereo not shown) [Example 155, N-(1-benzylpiperidin-3-yl)-4-(4-chlorophenyl)phthalazin-1-amine]
32 | 24.3 | 0.005 | COc1ccc(-c2nnc(N[C@@H]3CCCN(C)C3)c3ccnc(C)c23)c(O)c1 [Example 79, (R)-5-methoxy-2-(5-methyl-1-((1-methylpiperidin-3-yl)amino)pyrido[3,4-d]pyridazin-4-yl)phenol]
